Where no end group is shown, it is not given here. The star is where a group is joined. Octanoyl = CCCCCCCC(=O)*
Key:
CAC [1] = assay: Detection of ROS in CAC (DCF-DA assay, FACS); type: cell-based, human; conditions: for baseline level of ROS production: compared to untreated cells, FIG. 1B, 1E
Description: Peripheral-blood mononuclear cells (PB-MNC) isolated by Fycoll Histopaque 1077 (Sigma) were resuspended in 20% FBS 199 Medium and plated on fibronectin-coated dishes (Biocoat, Becton Dickinson Labware) as described by Hill et al. (Ref. 19). Human UAG studies were performed on CAC recovered from normal donors and diabetic patients. The purity of sorted cells was assessed by FACS analysis (Ref. 20). For experiments, the isolated CAC were cultured under 5% CO2 at 37° C. for 4 days on 20 μg/ml fibronectin-coated dishes in EGM-2 medium containing 10% FBS, hydrocortisone, human Fibroblast Growth Factor, Vascular Endothelial Growth Factor, Insulin Growth Factor 1, ascorbic acid, human Epidermal Growth Factor, gentamicin and amphotericin-B (Cambrex, Walkersville, Md., USA) alone or in combination with 1 μM UAG and 1.2 mg/ml AGE. In selected experiments, isolated CAC were cultured in EBM-2 medium (Cambrex, Walkersville, Md., USA) supplemented with 10 ng/ml of IL-3. FACS was used to analyze their phenotype (anti-CD45, anti-CD31, anti-CD105, anti-CD14 antibodies were used) (Ref. 22).
Detection of ROS—DCF-DA (0.5 μM final concentration) was added to CAC in the indicated culture conditions. At the indicated times, the cells were subjected to FACS analysis and processed as previously described (Ret. 22). H2O2 was used as positive control.

CAC [2] = assay: CAC mobilization assay in healthy subjects and diabetic patients; type: in vivo, human; conditions: diabetic patients compared to normal subjects, 6 hours treatment; FIG. 3B
Description: All the subjects underwent the following testing session: • UAG (3.0 μg/kg/h iv. as infusion for 12 h from 0 to 12 hours); • isotonic saline (infusion from 0 to 12 hours).
All tests were performed starting at 08.30-09.00 a.m. after overnight fasting, 30 minutes after an indwelling catheter had been placed into a forearm vein by slow infusion of isotonic saline. Blood samples were taken at 0 h, 6 h and 12 h.
Mobilization assay—CAC recovered from healthy subjects and diabetic patients, treated with UAG or saline for 6 h and 12 h, were evaluated. Total number of MNC was counted by 3 independent investigators. The percentage of CAC was calculated by comparing CAC obtained from diabetic patients and healthy donors, treated for 6 h and 12 h with UAG, AG or saline, to CAC recovered at time 0.

cardiomyocytes = conditions: Ref. 8; cited from earlier work
[3] = system: human umbilical vein endothelial cells (HUVECs); conditions: Ref. 5; cited from earlier work
[4] = system: human microvascular endothelial cells (HMVECs); conditions: Ref. 4; cited from earlier work
human arteries = conditions: Ref. 35; cited from earlier work
HIT-T15 β-cells = assay: Survival of cytokine-treated HIT-T15 β-cells (MTT); type: cell-based; conditions: cytokines (IFN-γ/TNF-α/IL-1β), peptides 1 nM to 100 nM
Description: The survival effect of UAG (6-13) (SEQ ID NO: 6), UAG (8-13) (SEQ ID NO: 7), UAG (8-12) (SEQ ID NO: 8), UAG (8-11) (SEQ ID NO: 12), UAG (9-12) (SEQ ID NO: 9) and UAG (9-11) (SEQ ID NO: 10) was assessed in cytokine-treated HIT-T15 β-cells. […] The protective effects of peptides UAG (8-13) (SEQ ID NO: 7) and UAG (8-12) (SEQ ID NO: 8) were found similar to those of UAG (1-14) (SEQ ID NO: 2) and UAG (1-18) (SEQ ID NO: 3). A peptide made of the inverse sequence of UAG (1-14) (SEQ ID NO: 2) and named UAG (14-1) (SEQ ID NO: 11), was used as negative control for these experiments. […] These effects were however lower than those of UAG (6-13) (SEQ ID NO: 6).

CAC membranes = assay: Competition binding with [125I-Tyr4]-UAG on CAC membranes; design: species or system human; conditions: 100 nM unlabelled competitor, radioligand 0.25 nM; FIG. 5A
Source text: The specific binding of [^125I-Tyr^4]-UAG (calculated as difference between binding in the absence, control, and in the presence of UAG) represented about 75% of the control value (P<0.001) and was detected either on fresh (0.25 and 0.26 fmol) or frozen-thawed (0.20 and 0.33 fmol) CAC membranes from two different cell preparations.

cloned cells = conditions: cited from earlier work
GH secretion = conditions: compared with Ghrelin-28; cited from earlier work

## AG: 28 amino acid peptide with an n-octanoyl modification on the Ser3 residue; endogenous ligand of GHSR (GSS(Octanoyl)FLSPEHQRVQQRKESKKPPAKLQPR; listed as Homo sapiens) [reference compound]
CAC [1]
  baseline level of ROS production: A protective effect failed to be detected
CAC [2]
  number of recovered CAC: No statistical differences
cardiomyocytes
  experimentally-induced cell death: inhibit experimentally-induced cell death
[3]
  basal and TNF-α-induced chemotactic cytokine production and mononuclear cell adhesion: inhibit basal and TNF-α-induced chemotactic cytokine production and mononuclear cell adhesion
[4]
  cell proliferation, migration, in vitro angiogenesis and ERK2 phosphorylation: significantly increased cell proliferation, migration, in vitro angiogenesis and ERK2 phosphorylation
Human arteries
  vasodilator action: vasodilator actions

## EHQRVQ [UAG (8-13)]
HIT-T15 β-cells
  survival effect on cytokine-induced cell death: significant protective effect at all the concentrations examined

## GSSFLSPEHQRVQQ [UAG (1-14)]
HIT-T15 β-cells
  survival effect on cytokine-induced cell death: similar

## GSSFLSPEHQRVQQRKES [UAG (1-18)]
HIT-T15 β-cells
  survival effect on cytokine-induced cell death: similar

## Glu-His-Gln-Arg-Val (EHQRV; listed as Homo sapiens) [UAG (8-12)]
HIT-T15 β-cells
  survival effect on cytokine-induced cell death: significant, although reduced protection, only at 10 nM and 100 nM

## Ser-Pro-Glu-His-Gln-Arg-Val-Gln (SPEHQRVQ; not fully specified (C-terminus); printed as Ser-Pro-Glu-His-Gln-Arg-Val-Gln; listed as Homo sapiens) [UAG (6-13)]
HIT-T15 β-cells
  survival effect on cytokine-induced cell death: potently inhibited cytokine-induced cell death
CAC [1]; AGE-cultured CAC, FIG. 1C, 1F
  level of ROS production in AGE-cultured cells: reduced
CAC [1]
  baseline level of ROS production: also reduces the baseline level of ROS production
CAC membranes
  inhibition of binding of [125I-Tyr4]-UAG to CAC membranes: inhibited

## UAG (8-11): fragment of unacylated ghrelin, residues 8 to 11 of SEQ ID NO: 1 (EHQR; listed as Homo sapiens)
HIT-T15 β-cells
  survival effect on cytokine-induced cell death: significant survival effect only at 100 nM

## UAG (9-11): fragment of unacylated ghrelin, residues 9 to 11 of SEQ ID NO: 1 (HQR)
HIT-T15 β-cells
  survival effect on cytokine-induced cell death: no significant effect at both concentrations tested

## UAG (9-12): fragment of unacylated ghrelin, residues 9 to 12 of SEQ ID NO: 1 (HQRV; listed as Homo sapiens)
HIT-T15 β-cells
  survival effect on cytokine-induced cell death: significantly increased cell survival at both the concentrations tested

## des Gln-14 Ghrelin: isoform of ghrelin-28, a 27 amino acid peptide possessing serine 3 modification by n-octanoic acid (GSS(Octanoyl)FLSPEHQRVQRKESKKPPAKLQPR; listed as Homo sapiens)
Cloned cells
  Ca2+ fluxes: elicits Ca^2+ fluxes in cloned cells
GH secretion
  GH secretion: induces GH secretion with similar potency as Ghrelin-28
